Experimental data taken from patent publication US4255431A, “Gastric acid secretion inhibiting substituted 2-(2-benzimidazolyl)-pyridines, pharmaceutical preparations containing same, and method for inhibiting gastric acid secretion” (priority 1978, dated 1981).

Tested on: gastric acid secretion
Assay: Inhibition of pentagastrin-stimulated gastric acid secretion in conscious gastric fistula dogs (intraduodenal administration)
Type: in vivo
Settings: Canis lupus familiaris, dose 0.5 μmol/kg, read-out: Effect, % inhibition (peak inhibitory effect on gastric acid secretion)
Description: To determine the gastric acid secretion inhibitory properties, experiments have been performed on conscious dogs provided with gastric fistulas of conventional type and duodenal fistulas, the latter ones used for direct intraduodenal administration of the test compounds. After 18 hours starvation and deprivation of water the dogs were given a subcutaneous infusion of pentagastrin (1-4 nmol/kg, h) lasting for 6-7 hours. Gastric juice was collected in consecutive 30 minutes samples. An aliquot of each sample was titrated with 0.1 N NaOH to pH 7.0 for titrable acid concentration using an automatic titrator and pH-meter (Radiometer, Copenhagen, Denmark). Acid output was calculated as mmol H^+ /60 minutes. The percent inhibition compared to control experiments was calculated for each compound and the peak inhibitory effect is given in Table 2 below. […] In the test prior known compounds were compared with the compounds of the present invention as will be evident from the Table 2 below. The following gastric acid inhibiting effect data were obtained for a number of compounds tested according to the method described.

Q: `COc1c(C)cnc(C[S+]([O-])c2nc3cc(C(C)=O)c(C)cc3[nH]2)c1C` (stereo not shown) [Example 11] was tested. Which inhibition in vivo at 0.5 µmol/kg did it give?
A: The inhibition in vivo at 0.5 µmol/kg was 70%.

Q: For `COC(=O)c1cc2nc([S+]([O-])Cc3nccc(OC)c3C)[nH]c2cc1C` (stereo not shown) [Example 16], which inhibition in vivo at 0.5 µmol/kg is on record?
A: The inhibition in vivo at 0.5 µmol/kg was 65%.

Q: Which inhibition in vivo at 0.5 µmol/kg does the source give for `COC(=O)c1cc2nc([S+]([O-])Cc3ncc(C)c(OC)c3C)[nH]c2cc1C` (stereo not shown) [Example 17] here?
A: The inhibition in vivo at 0.5 µmol/kg was 90%.

Q: `COC(=O)c1ccc2[nH]c([S+]([O-])Cc3ncc(C)c(OC)c3C)nc2c1` (stereo not shown) [Example 20] was tested. Which inhibition in vivo at 0.5 µmol/kg did it give?
A: Its inhibition in vivo at 0.5 µmol/kg is 65%.

Q: How did the inhibition in vivo at 0.5 µmol/kg turn out when `COc1c(C)cnc(C[S+]([O-])c2nc3cc(C(C)=O)ccc3[nH]2)c1C` (stereo not shown) [Example 21] was run?
A: Its inhibition in vivo at 0.5 µmol/kg is 60%.

Q: Which inhibition in vivo at 0.5 µmol/kg does the source give for `COc1ccc2[nH]c([S+]([O-])Cc3ncc(C)c(OC)c3C)nc2c1` (stereo not shown) [Example 23] here?
A: The inhibition in vivo at 0.5 µmol/kg was 65%.

Q: For `COc1c(C)cnc(C[S+]([O-])c2nc3cc(C)ccc3[nH]2)c1C` (stereo not shown) [Example 24], which inhibition in vivo at 0.5 µmol/kg is on record?
A: The inhibition in vivo at 0.5 µmol/kg was 50%.

Q: For `COc1c(C)cnc(C[S+]([O-])c2nc3ccccc3[nH]2)c1C` (stereo not shown) [Example 25], which inhibition in vivo at 0.5 µmol/kg is on record?
A: The inhibition in vivo at 0.5 µmol/kg was 60%.

Q: For `COc1c(C)cnc(C[S+]([O-])c2nc3cc(Cl)ccc3[nH]2)c1C` (stereo not shown) [Example 26], which inhibition in vivo at 0.5 µmol/kg is on record?
A: The inhibition in vivo at 0.5 µmol/kg was 25%.

Q: How did the inhibition in vivo at 0.5 µmol/kg turn out when `COCCOc1ccnc(C[S+]([O-])c2nc3cc(C)ccc3[nH]2)c1` (stereo not shown) [Example 27] was run?
A: Its inhibition in vivo at 0.5 µmol/kg is 30%.

Q: `CCOC(=O)c1ccc2[nH]c([S+]([O-])Cc3ncc(C)c(OC)c3C)nc2c1` (stereo not shown) [Example 28] was tested. Which inhibition in vivo at 0.5 µmol/kg did it give?
A: The inhibition in vivo at 0.5 µmol/kg was 50%.

Q: How did the inhibition in vivo at 0.5 µmol/kg turn out when `COC(=O)c1ccc2[nH]c([S+]([O-])C(C)c3ncc(C)cc3C)nc2c1` (stereo not shown) [Example 29] was run?
A: Its inhibition in vivo at 0.5 µmol/kg is 40%.

Same assay, conditions: Canis lupus familiaris, dose 1 μmol/kg, read-out: Effect, % inhibition (peak inhibitory effect on gastric acid secretion)

Q: How did the inhibition in vivo at 1 µmol/kg turn out when `CC(=O)c1cc2nc([S+]([O-])Cc3nccc(C)c3C)[nH]c2cc1C` (stereo not shown) [Example 4] was run?
A: The inhibition in vivo at 1 µmol/kg was 60%.

Same assay, conditions: Canis lupus familiaris, dose 2 μmol/kg, read-out: Effect, % inhibition (peak inhibitory effect on gastric acid secretion)

Q: Which inhibition in vivo at 2 µmol/kg does the source give for `CC(=O)c1cc2nc([S+]([O-])Cc3cc(C)c(C)cn3)[nH]c2cc1C` (stereo not shown) [Example 1, 2-[2-(4,5-di-methyl)pyridylmethylsulfinyl]-(5-acetyl-6-methyl)benzimidazole] here?
A: Its inhibition in vivo at 2 µmol/kg is 90%.

Q: With `COC(=O)c1cc2nc([S+]([O-])Cc3cc(C)c(C)cn3)[nH]c2cc1C` (stereo not shown) [Example 2] as the compound, how does the inhibition in vivo at 2 µmol/kg read?
A: Its inhibition in vivo at 2 µmol/kg is 60%.

Q: Which inhibition in vivo at 2 µmol/kg does the source give for `COC(=O)c1cc2nc([S+]([O-])Cc3nccc(C)c3C)[nH]c2cc1C` (stereo not shown) [Example 5] here?
A: The inhibition in vivo at 2 µmol/kg was 90%.

Q: Which inhibition in vivo at 2 µmol/kg does the source give for `CC(=O)c1cc2nc([S+]([O-])Cc3ncc(C)cc3C)[nH]c2cc1C` (stereo not shown) [Example 7, 2-[2-(3,5-dimethyl)pyridylmethylsulfinyl]-(5-acetyl-6-methyl)benzimidazole] here?
A: The inhibition in vivo at 2 µmol/kg was 100%.

Q: For `COc1ccnc(C[S+]([O-])c2nc3cc(C(C)=O)c(C)cc3[nH]2)c1` (stereo not shown) [Example 9], which inhibition in vivo at 2 µmol/kg is on record?
A: Its inhibition in vivo at 2 µmol/kg is 95%.

Q: Which inhibition in vivo at 2 µmol/kg does the source give for `COc1ccnc(C[S+]([O-])c2nc3c(C)cc(C)cc3[nH]2)c1` (stereo not shown) [Example 10] here?
A: Its inhibition in vivo at 2 µmol/kg is 40%.

Q: How did the inhibition in vivo at 2 µmol/kg turn out when `COC(=O)c1cc2nc([S+]([O-])Cc3ncc(C)cc3C)[nH]c2cc1C` (stereo not shown) [Example 12] was run?
A: Its inhibition in vivo at 2 µmol/kg is 70%.

Q: With `COC(=O)c1cc2nc([S+]([O-])Cc3cc(OC)ccn3)[nH]c2cc1C` (stereo not shown) [Example 14] as the compound, how does the inhibition in vivo at 2 µmol/kg read?
A: The inhibition in vivo at 2 µmol/kg was 100%.

Q: For `COC(=O)c1ccc2[nH]c([S+]([O-])Cc3ncc(C)cc3C)nc2c1` (stereo not shown) [Example 19], which inhibition in vivo at 2 µmol/kg is on record?
A: Its inhibition in vivo at 2 µmol/kg is 60%.

Same assay, conditions: Canis lupus familiaris, dose 4 μmol/kg, read-out: Effect, % inhibition (peak inhibitory effect on gastric acid secretion)

Q: Which inhibition in vivo at 4 µmol/kg does the source give for `Cc1ccc(C[S+]([O-])c2nc3cc(C)ccc3[nH]2)nc1` (stereo not shown) [* 5-CH3, H, H, H, H, CH3, reference compound] here?
A: The inhibition in vivo at 4 µmol/kg was 50%.

Q: `COC(=O)c1cc2nc([S+]([O-])Cc3ncccc3Br)[nH]c2cc1C` (stereo not shown) [* 5-COOCH3,6-CH3, H, Br, H, H, reference compound] was tested. Which inhibition in vivo at 4 µmol/kg did it give?
A: The inhibition in vivo at 4 µmol/kg was 0%.

Q: For `COC(=O)c1cc2nc([S+]([O-])Cc3ccc(C)cn3)[nH]c2cc1C` (stereo not shown) [* 5-COOCH3,6-CH3, H, H, H, CH3, reference compound], which inhibition in vivo at 4 µmol/kg is on record?
A: The inhibition in vivo at 4 µmol/kg was 50%.

Q: With `COC(=O)c1ccc2[nH]c([S+]([O-])Cc3cc(C)c(C)cn3)nc2c1` (stereo not shown) [Example 3] as the compound, how does the inhibition in vivo at 4 µmol/kg read?
A: The inhibition in vivo at 4 µmol/kg was 100%.

Q: Which inhibition in vivo at 4 µmol/kg does the source give for `Cc1cnc(C[S+]([O-])c2nc3c(C)cc(C)cc3[nH]2)c(C)c1` (stereo not shown) [Example 6] here?
A: Its inhibition in vivo at 4 µmol/kg is 40%.

Q: `CC(=O)c1cc2nc([S+]([O-])Cc3ncc(C)c(C)c3C)[nH]c2cc1C` (stereo not shown) [Example 8] was tested. Which inhibition in vivo at 4 µmol/kg did it give?
A: Its inhibition in vivo at 4 µmol/kg is 100%.

Q: `COC(=O)c1cc2nc([S+]([O-])Cc3ncc(C)c(C)c3C)[nH]c2cc1C` (stereo not shown) [Example 13] was tested. Which inhibition in vivo at 4 µmol/kg did it give?
A: The inhibition in vivo at 4 µmol/kg was 80%.

Q: For `CCOc1ccnc(C[S+]([O-])c2nc3cc(C(=O)OC)c(C)cc3[nH]2)c1` (stereo not shown) [Example 15], which inhibition in vivo at 4 µmol/kg is on record?
A: Its inhibition in vivo at 4 µmol/kg is 75%.

Same assay, conditions: Canis lupus familiaris, dose 8 μmol/kg, read-out: Effect, % inhibition (peak inhibitory effect on gastric acid secretion)

Q: Which inhibition in vivo at 8 µmol/kg does the source give for `CC(=O)c1cc2nc([S+]([O-])Cc3ccc(C)cn3)[nH]c2cc1C` (stereo not shown) [* 5-COCH3,6-CH3, H, H, H, CH3, reference compound] here?
A: Its inhibition in vivo at 8 µmol/kg is 80%.

Same assay, conditions: Canis lupus familiaris, dose 12 μmol/kg, read-out: Effect, % inhibition (peak inhibitory effect on gastric acid secretion)

Q: How did the inhibition in vivo at 12 µmol/kg turn out when `Cc1ccc(C[S+]([O-])c2nc3c(C)cc(C)cc3[nH]2)nc1` (stereo not shown) [* 4-CH3,6-CH3, H, H, H, CH3, reference compound] was run?
A: The inhibition in vivo at 12 µmol/kg was 50%.

Same assay, conditions: Canis lupus familiaris, dose 20 μmol/kg, read-out: Effect, % inhibition (peak inhibitory effect on gastric acid secretion)

Q: With `CC(=O)c1cc2nc([S+]([O-])Cc3cc(C)ccn3)[nH]c2cc1C` (stereo not shown) [* 5-COCH3,6-CH3, H, H, CH3, H, reference compound] as the compound, how does the inhibition in vivo at 20 µmol/kg read?
A: The inhibition in vivo at 20 µmol/kg was 30%.

Q: With `CCc1ccc(C[S+]([O-])c2nc3cc(C(C)=O)ccc3[nH]2)nc1` (stereo not shown) [* 5-COCH3, H, H, H, H, C2 H5, reference compound] as the compound, how does the inhibition in vivo at 20 µmol/kg read?
A: The inhibition in vivo at 20 µmol/kg was 40%.

Q: With `COC(=O)c1ccc2[nH]c([S+]([O-])Cc3ccc(C)cn3)nc2c1` (stereo not shown) [* 5-COOCH3, H, H, H, H, CH3, reference compound] as the compound, how does the inhibition in vivo at 20 µmol/kg read?
A: Its inhibition in vivo at 20 µmol/kg is 90%.

Q: How did the inhibition in vivo at 20 µmol/kg turn out when `COC(=O)c1ccc2[nH]c([S+]([O-])Cc3ccccn3)nc2c1` (stereo not shown) [* 5-COOCH3, H, H, H, H, H, reference compound] was run?
A: Its inhibition in vivo at 20 µmol/kg is 50%.

Q: How did the inhibition in vivo at 20 µmol/kg turn out when `COc1ccc2[nH]c([S+]([O-])Cc3cc(C)ccn3)nc2c1` (stereo not shown) [* 5-OCH3, H, H, H, CH3, H, reference compound] was run?
A: Its inhibition in vivo at 20 µmol/kg is 10%.
